Experiments:
[1] = molecular target: T1, BRD4 Bromo Domain 2 [BRD4(2)] (Homo sapiens, UniProt O60885); experiment: BRD4(2)/acetylated peptide H4 binding assay (TR-FRET); settings: inhibition of interaction between His6-tagged BRD4(2) (amino acids 357-445) and acetylated histone H4 peptide
T1 construct: N-terminally His6-tagged BRD4(2) (amino acids 357-445); made in house; host or cells: E. coli
Excerpt: Protein-Protein Interaction Assay: BRD4/Acetylated Peptide H4 Binding Assay
2. Assay Description for BRD4 Bromo Domain 2 [BRD4(2)]
To assess the BRD4(2) binding strength of the substances described in this application, the ability thereof to inhibit the interaction between BRD4(2) and acetylated histone H4 in a dose-dependent manner was quantified.
For this purpose, a time-resolved fluorescence resonance energy transfer (TR-FRET) assay was used, which measures the binding between N-terminally His6-tagged BRD4(2) (amino acids 357-445) and a synthetic acetylated histone H4 (Ac-H4) peptide with sequence SGRGK(Ac)GGK(Ac)GLGK(Ac)GGAK(Ac)RHRKVLRDNGSGSK-biotin. The recombinant BRD4(2) protein produced in house according to Filippakopoulos et al., Cell, 2012, 149:214-231 was expressed in E. coli and purified by means of (Ni-NTA) affinity and (Sephadex G-75) size exclusion chromatography. The Ac-H4 peptide can be purchased, for example, from Biosyntan (Berlin, Germany).
In the assay, typically 11 different concentrations of each substance (0.1 nM, 0.33 nM, 1.1 nM, 3.8 nM, 13 nM, 44 nM, 0.15 μM, 0.51 μM, 1.7 μM, 5.9 μM and 20 μM) were analysed as duplicates on the same microtitre plate. For this purpose, 100-fold concentrated solutions in DMSO were prepared by serial dilutions (1:3.4) of a 2 mM stock solution into a clear, 384-well microtitre plate (Greiner Bio-One, Frickenhausen, Germany). From this, 50 nl were transferred into a black test plate (Greiner Bio-One, Frickenhausen, Germany). The test was started by the addition of 2 μl of a 2.5-fold concentrated BRD4(2) solution (final concentration typically 100 nM in the 5 μl of reaction volume) in aqueous assay buffer [50 mM HEPES pH 7.5, 50 mM sodium chloride (NaCl); 50 mM potassium fluoride (KF); 0.25 mM CHAPS and 0.05% serum albumin (BSA)] to the substances in the test plate. This was followed by a 10-minute incubation step at 22° C. for the pre-equilibration of putative complexes between BRD4(2) and the substances.
The mixture was then incubated in the dark at 22° C. for one hour and then at 4° C. for at least 3 hours and for no longer than overnight. The formation of BRD4(2)/Ac-H4 complexes was determined by the measurement of the resonance energy transfer from the streptavidin-Eu chelate to the anti-6His-XL665 antibody present in the reaction. For this purpose, the fluorescence emission was measured at 620 nm and 665 nm after excitation at 330-350 nm in a TR-FRET measuring instrument, for example a Rubystar or Pherastar (both from BMG Lab Technologies, Offenburg, Germany) or a Viewlux (Perkin-Elmer). The ratio of the emissions at 665 nm and at 622 nm was taken as an indicator of the amount of BRD4(2)/Ac-H4 complexes formed.
The data (ratios) obtained were normalized, with 0% inhibition corresponding to the mean from the measurements for a set of controls (typically 32 data points) in which all the reagents were present. In these, in place of test substances, 50 nl of DMSO (100%) were used Inhibition of 100% corresponded to the mean from the measurements for a set of controls (typically 32 data points) in which all the reagents except BRD4(2) were present. The IC50 was determined by regression analysis based on a 4-parameter equation (minimum, maximum, IC50, Hill; Y=max+(min−max)/(1+(X/IC50)Hill)).

MOLP-8 cells = experiment: MOLP-8 cell proliferation assay (alamarBlue); format: cell-based; settings: inhibition of cell proliferation, 120 hours, human multiple myeloma cell line
Description: In accordance with the invention, the ability of the substances to inhibit cell proliferation was determined Cell viability was determined by means of the alamarBlue® reagent (Invitrogen) in a Victor X3 Multilabel Reader (Perkin Elmer). The excitation wavelength was 530 nm and the emission wavelength […].
The MOLP-8 cells (DSMZ, ACC 569) were sown at a concentration of 4000 cells/well in 100 μl of growth medium (RPMI1640, 20% FCS) on 96-well microtitre plates.
After overnight incubation at 37° C., the fluorescence values were determined (CI values). Then the plates were treated with various substance dilutions (1E-5 M, 3E-6 M, 1E-6 M, 3E-7 M, 1E-7 M, 3E-8 M, 1E-8 M) and incubated at 37° C. over 96 hours (MOLM-13, B16F10 cells) or 120 hours (MOLP-8 cells). Subsequently, the fluorescence values were determined (CO values). For the data analysis, the CI values were subtracted from the CO values and the results were compared between cells which had been treated with various dilutions of the substance or only with buffer solution. The IC50 values (substance concentration needed for 50% inhibition of cell proliferation) were calculated therefrom.
MOLP-8 human multiple myeloma cell line

SMILES | IC50 [1] [nM] | IC50 (MOLP-8 cells) [nM]
CC(=O)N1CCC(NC(=O)c2ccc(Nc3ccc4c(c3)N(C3CCOCC3)[C@H](C)C(=O)N4C)cc2)CC1 [Example 32, N-(1-acetylpiperidin-4-yl)-4-{[(3R)-1,3-dimethyl-2-oxo-4-(tetrahydro-2H-pyran-4-yl)-1,2,3,4-tetrahydroquinoxalin-6-yl]amino}benzamide] | 482 | 2580
C[C@@H]1C(=O)N(C)c2ccc(Nc3ccc(S(=O)(=O)N(C)C)cc3)cc2N1C1CCOCC1 [Example 46, 4-{[(3R)-1,3-dimethyl-2-oxo-4-(tetrahydro-2H-pyran-4-yl)-1,2,3,4-tetrahydroquinoxalin-6-yl]amino}-N,N-dimethylbenzenesulphonamide] | 148 | 365
C[C@@H]1C(=O)N(C)c2ccc(Nc3ccc(C(=O)N4CCOCC4)cc3)cc2N1C1CCCCCC1 [Example 24, (3R)-4-cycloheptyl-1,3-dimethyl-6-{[4-(morpholin-4-ylcarbonyl)phenyl]amino}-3,4-dihydroquinoxalin-2(1H)-one] | 102 | 662
C[C@@H]1C(=O)N(C)c2ccc(Nc3ccc(C(=O)NC4CC4)cc3)cc2N1Cc1ccccc1 [Example 10, 4-{[(3R)-4-benzyl-1,3-dimethyl-2-oxo-1,2,3,4-tetrahydroquinoxalin-6-yl]amino}-N-cyclopropylbenzamide] | 64 | 260
C[C@@H]1C(=O)N(C)c2ccc(Nc3ccc(S(=O)(=O)N4CCN(C)CC4)cc3)cc2N1C1CCOCC1 [Example 48, (3R)-1,3-dimethyl-6-({4-[(4-methylpiperazin-1-yl)sulphonyl]phenyl}amino)-4-(tetrahydro-2H-pyran-4-yl)-3,4-dihydroquinoxalin-2(1H)-one] | 112 | 803
C[C@@H]1C(=O)N(C)c2ccc(Nc3ccc(C(=O)NC4CCN(C)CC4)cc3)cc2N1Cc1ccccc1 [Example 11, 4-{[(3R)-4-benzyl-1,3-dimethyl-2-oxo-1,2,3,4-tetrahydroquinoxalin-6-yl]amino}-N-(1-methylpiperidin-4-yl)benzamide] | 107 | 102
C[C@@H]1C(=O)N(C)c2ccc(Nc3ccc(C(=O)NCC4COC4)cc3)cc2N1Cc1ccccc1 [Example 9, 4-{[(3R)-4-benzyl-1,3-dimethyl-2-oxo-1,2,3,4-tetrahydroquinoxalin-6-yl]amino}-N-(oxetan-3-ylmethyl)benzamide] | 62 | 139
COc1ccc(CN2c3cc(Nc4ccc(C(=O)NCCN5CCN(C)CC5)cc4)ccc3N(C)C(=O)[C@H]2C)cc1 [Example 21, 4-{[(3R)-4-(4-methoxybenzyl)-1,3-dimethyl-2-oxo-1,2,3,4-tetrahydroquinoxalin-6-yl]amino}-N-[2-(4-methylpiperazin-1-yl)ethyl]benzamide] | 54 | 69
COc1ccc(CN2c3cc(Nc4ccc(S(=O)(=O)N5CCN(C)CC5)cc4)ccc3N(C)C(=O)[C@H]2C)cc1 [Example 43, (3R)-4-(4-methoxybenzyl)-1,3-dimethyl-6-({4-[(4-methylpiperazin-1-yl)sulphonyl]phenyl}amino)-3,4-dihydroquinoxalin-2(1H)-one] | 54 | 35
COc1ccc(CN2c3cc(Nc4ccc(C(=O)N5CC6(COC6)C5)cc4)ccc3N(C)C(=O)[C@H]2C)cc1 [Example 20, (3R)-4-(4-methoxybenzyl)-1,3-dimethyl-6-{[4-(2-oxa-6-azaspiro[3.3]hept-6-ylcarbonyl)phenyl]amino}-3,4-dihydroquinoxalin-2(1H)-one] | 43 | 120
C[C@@H]1C(=O)N(C)c2ccc(Nc3ccc(C(=O)N4CCOCC4)cc3)cc2N1Cc1ccccc1 [Example 12, (3R)-4-benzyl-1,3-dimethyl-6-{[4-(morpholin-4-ylcarbonyl)phenyl]amino}-3,4-dihydroquinoxalin-2(1H)-one] | 47 | 98
C[C@@H]1C(=O)N(C)c2ccc(Nc3ccc(C(=O)N(C)C)cc3)cc2N1C1CCCC1 [Example 8, 4-{[(3R)-4-cyclopentyl-1,3-dimethyl-2-oxo-1,2,3,4-tetrahydroquinoxalin-6-yl]amino}-N,N-dimethylbenzamide] | 171 | 521
C[C@@H]1C(=O)N(C)c2ccc(Nc3ccc(S(=O)(=O)N4CCOCC4)cc3)cc2N1Cc1ccccc1 [Example 13, (3R)-4-benzyl-1,3-dimethyl-6-{[4-(morpholin-4-ylsulphonyl)phenyl]amino}-3,4-dihydroquinoxalin-2(1H)-one] | 51 | 98
C[C@@H]1C(=O)N(C)c2ccc(Nc3ccc(C(=O)N4CCOCC4)cc3)cc2N1C1CCCC1 [Example 6, (3R)-4-cyclopentyl-1,3-dimethyl-6-{[4-(morpholin-4-ylcarbonyl)phenyl]amino}-3,4-dihydroquinoxalin-2(1H)-one] | 80 | 271
COc1ccc(CN2c3cc(Nc4ccc(C(=O)N5CCN(C(C)C)CC5)cc4)ccc3N(C)C(=O)[C@H]2C)cc1 [Example 22, (3R)-4-(4-methoxybenzyl)-1,3-dimethyl-6-[(4-{[4-(propan-2-yl)piperazin-1-yl]carbonyl}phenyl)amino]-3,4-dihydroquinoxalin-2(1H)-one] | 86 | 93
C[C@@H]1C(=O)N(C)c2ccc(Nc3ccc(C(=O)N4CC5(CCS5(=O)=O)C4)cc3)cc2N1C1CCOCC1 [Example 31, (3R)-6-({4-[(1,1-dioxido-1-thia-6-azaspiro[3.3]hept-6-yl)carbonyl]phenyl}amino)-1,3-dimethyl-4-(tetrahydro-2H-pyran-4-yl)-3,4-dihydroquinoxalin-2(1H)-one] | 126 | 1250
C[C@@H]1C(=O)N(C)c2ccc(Nc3ccc(S(=O)(=O)N4CCOCC4)cc3)cc2N1C1CCOCC1 [Example 47, (3R)-1,3-dimethyl-6-{[4-(morpholin-4-ylsulphonyl)phenyl]amino}-4-(tetrahydro-2H-pyran-4-yl)-3,4-dihydroquinoxalin-2(1H)-one] | 134 | 496
COc1cc(C(=O)NC2CCN(C)CC2)ccc1Nc1ccc2c(c1)N(C1CCOCC1)[C@H](C)C(=O)N2C [Example 36, 4-{[(3R)-1,3-dimethyl-2-oxo-4-(tetrahydro-2H-pyran-4-yl)-1,2,3,4-tetrahydroquinoxalin-6-yl]amino}-3-methoxy-N-(1-methylpiperidin-4-yl)benzamide] | 441 | 675
C[C@@H]1C(=O)N(C)c2ccc(Nc3ccc(S(=O)(=O)N(C)C)cc3)cc2N1Cc1ccccc1 [Example 14, 4-{[(3R)-4-benzyl-1,3-dimethyl-2-oxo-1,2,3,4-tetrahydroquinoxalin-6-yl]amino}-N,N-dimethylbenzenesulphonamide] | 78 | 115
